Test results from patent US10822309B2, “Crystalline form of Eluxadoline” (priority 2017, dated 2020).

Test: PXRD studies of capped and uncapped samples after storage in stability chambers (polymorphic stability)
Assay type: physicochemical
Description: Eluxadoline Form APO-I can be characterized by a PXRD diffractogram comprising, among other peaks, characteristic peaks, expressed in degrees 2θ (±0.2°), at 6.4°, 6.9° and 11.4°. Preferably, the PXRD diffractogram further comprises at least three peaks, expressed in degrees 2θ (±0.2°), selected from the group consisting of 8.7°, 9.9°, 12.7°, 14.8°, 15.8°, 17.5°, 18.9°, 19.8° and 23.8°. More preferably, the PXRD diffractogram further comprises peaks, expressed in degrees 2θ (±0.2°), at 8.7°, 9.9°, 12.7°, 14.8°, 15.8°, 17.5°, 18.9°, 19.8° and 23.8°. PXRD studies of capped and uncapped samples of Eluxadoline Form APO-I have shown that this crystal form is stable following storage in stability chambers maintained at 27° C./60% RH and 40° C./75% RH for at least 10 days.
PXRD diffractograms were recorded on a Bruker D8 Discover powder X-ray diffractometer (Bruker-AXS, Karlsruhe, Germany). The generator was a Micro-focus X-ray source (IMSTube: Cu tube with 1.54184 A) with a voltage of 50 kV and current of 1.00 mA, using a divergence slit of 0.3 mm and collimator of 0.3 mm. For each sample, one frame was collected using a still scan with a Pilatus 3R-100 kA detector at the distance of 154.72 mm from the sample. Raw data were evaluated using the program EVA (Bruker-AXS, Karlsruhe, Germany).

In the case of `COc1ccc(CN(C(=O)[C@@H](N)Cc2c(C)cc(C(N)=O)cc2C)[C@@H](C)c2nc(-c3ccccc3)c[nH]2)cc1C(=O)O` [Eluxadoline Form APO-I, 5-({[(2S)-2-amino-3-(4-carbamoyl-2,6-dimethylphenyl)propionyl]-[(1S)-1-(4-phenyl-1H-imidazol-2-yl)ethyl]amino}-methyl)-2-methoxybenzoic acid], the “crystal form stable following storage (PXRD)” value (stability chamber 27° C./60% RH) is reported as “at least 10 days” and the “crystal form stable / resists polymorph conversion following storage (PXRD)” value (stability chamber 40° C./75% RH) is reported as “at least 10 days”.
